Assay results published in patent US12685780B2, “Immune inducer containing polynucleotide-peptide conjugate and pharmaceutical composition containing same” (The University of Kitakyushu, priority 2020, dated 2026).
Entries after “also recorded” stand apart in the source; their conditions may differ. Each block holds one substance with its values, some of them ahead of it.

Key:
MHC-1 on DC2.4 cells = target: T1, MHC-1 on DC2.4 cells (Mus musculus, UniProt P01901); experiment: Competitive inhibition of binding of OVA peptide 1 to MHC-1 on DC2.4 cells; design: species or system murine; conditions: peptide 2.5 μg/mL against OVA peptide 1 0.25 μg/mL, on ice 30 minutes
T1 construct: endogenous in cells; host or cells: DC2.4 murine dendritic cell line
T1 sequence (P01901 22-369): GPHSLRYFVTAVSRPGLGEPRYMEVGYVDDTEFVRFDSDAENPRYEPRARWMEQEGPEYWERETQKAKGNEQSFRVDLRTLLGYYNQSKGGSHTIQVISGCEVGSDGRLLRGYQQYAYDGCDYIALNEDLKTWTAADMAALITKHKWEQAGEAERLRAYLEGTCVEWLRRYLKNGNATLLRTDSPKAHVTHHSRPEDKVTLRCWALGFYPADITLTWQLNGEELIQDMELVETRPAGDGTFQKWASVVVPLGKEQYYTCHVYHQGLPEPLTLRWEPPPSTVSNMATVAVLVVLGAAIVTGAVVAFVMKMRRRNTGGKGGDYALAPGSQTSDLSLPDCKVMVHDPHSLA
T1 sequence (P01887 21-119 partner): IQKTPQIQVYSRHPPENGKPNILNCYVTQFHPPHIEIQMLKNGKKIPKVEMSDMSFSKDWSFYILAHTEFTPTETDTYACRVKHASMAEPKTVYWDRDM
Description: Murine dendritic cell line, DC2.4 cells, were detached from a dish, and suspended in 1.5 mL tubes at a concentration of 1.5×10^5 cells per […] of PBS.

[1] = test system: antigen-retaining splenocytes (TRP2-9); experiment: Induction of cytotoxic T lymphocytes in mice (in vivo CTL assay, flow cytometry), mTRP2 antigen; design: species or system C57BL/6 mice; conditions: antigen TRP2-9

Inhibitory activity against binding of OVA peptide 1 to MHC class I molecules (MHC-1 on DC2.4 cells): no inhibitory activity was observed
Substance: C-TRP2-9: CSVYDFFVWL (SEQ ID NO: 31); cysteine added to the N-terminus of TRP2-9 (C-TRP2-9)

Decrease of average fluorescence intensity (OVA peptide 1-MHC-1 complexes on DC2.4 cells) (MHC-1 on DC2.4 cells): 23%
Substance: C-TRP2-8: CVYDFFVWL (SEQ ID NO: 32); cysteine added to N-terminus of amino acid residues 181 to 188 of mTRP2 (C-TRP2-8)

Substance: CpG30(S)a-mTRP2pep9: CpG30(S)a (SEQ ID NO: 6, phosphorothioate) conjugated via disulfide spacer to peptide C-TRP2-8 (CVYDFFVWL) (DNA gagcgttctcatcgactctcgagcgttctc; phosphorothioate; disulfide spacer conjugate; K3-30(a))
CTL-inducing ability (decrease in antigen-retaining splenocytes) ([1]; 200 ng per mouse in terms of peptide, intracutaneous, single dose): marked decrease in antigen-retaining splenocytes; also recorded: can induce potent CTL activity
CTL-inducing ability (decrease in antigen-retaining splenocytes) ([1]; dose not stated): high CTL-inducing ability
Dose dependency of CTL-inducing ability ([1]; doses of 50, 200 or 1000 ng per mouse in terms of peptide): dose dependency

Substance: CpG20(S)a-mTRP2pep9: CpG20(S)a (SEQ ID NO: 1) conjugated to peptide C-TRP2-8 (CVYDFFVWL) (DNA atcgactctcgagcgttctc; oligonucleotide-peptide conjugate; K3)
CTL-inducing ability (decrease in antigen-retaining splenocytes) ([1]; dose not stated): high CTL-inducing ability
